Data reported in patent US10328065B2, “Pharmaceutical combination comprising the PI3K inhibitor alpelisib and the B-RAF inhibitor dabrafenib; the use of such combination in the treatment or prevention of cancer” (Novartis AG, priority 2015, dated 2019).

Tests used:
Type in all cases: cell-based
LIM2551 = test: Cell proliferation (cell count by microscopy) and HSA synergy, LIM2551; details: LIM2551 (BRAF, PIK3CA mutant); 72 h; 50% of cell counts relative to DMSO; tested A 13 nM-10 μM, B 1.4 nM-1 μM
Method: (§1) COMPOUNDS A and B were dissolved in 100% DMSO (Sigma, Catalog number D2650) at concentrations of 20 mM and stored at −20° C. until use. Compounds were arrayed in drug master plates (Greiner, Catalog number 788876) and serially diluted 3-fold (7 steps) at 2000× concentration.
(§2) Colorectal cancer cell lines used for this study were obtained, cultured and processed from commercial vendors ATCC, HSRRB, and CellBank Australia (Table 1). All cell line media were supplemented with 10% FBS (HyClone, Catalog number SH30071.03). Media for LIM2405 and LIM2551 was additionally supplemented with 0.6 μg/mL Insulin (SIGMA, Catalog number 19278), 1 μg/mL Hydrocortisone (SIGMA, Catalog number H0135), and 10 μM 1-Thioglycerol (SIGMA, Catalog number M6145).
(§3) Cell lines were cultured in 37° C. and 5% CO2 incubator and expanded in T-75 flasks. In all cases cells were thawed from frozen stocks, expanded through ≥1 passage using 1:3 dilutions, counted and assessed for viability using a ViCell counter (Beckman-Coulter) prior to plating. To split and expand cell lines, cells were dislodged from flasks using 0.25% Trypsin-EDTA (GIBCO, Catalog number 25200). All cell lines were determined to be free of mycoplasma contamination as determined by a PCR detection methodology performed at Idexx Radil (Columbia, Mo., USA) and correctly identified by detection of a panel of SNPs. […]

LIM2405 = test: Cell proliferation (cell count by microscopy) and HSA synergy, LIM2405; details: LIM2405 (BRAF mutant); 72 h; 50% of cell counts relative to DMSO; tested A 13 nM-10 μM, B 1.4 nM-1 μM
Method: as §1, §2, §3

COLO-205 = test: Cell proliferation (cell count by microscopy) and HSA synergy, COLO-205; details: Homo sapiens; COLO-205 (BRAF mutant); 72 h; 50% of cell counts relative to DMSO; tested A 13 nM-10 μM, B 1.4 nM-1 μM
Method: as §1, §2, §3

OUMS-23 = test: Cell proliferation (cell count by microscopy) and HSA synergy, OUMS-23; details: OUMS-23 (BRAF mutant); 72 h; 50% of cell counts relative to DMSO; tested A 13 nM-10 μM, B 1.4 nM-1 μM
Method: as §1, §2, §3

HT-29 = test: Cell proliferation (cell count by microscopy) and HSA synergy, HT-29; details: Homo sapiens; HT-29 (BRAF, PIK3CA mutant); 72 h; 50% of cell counts relative to DMSO; tested A 13 nM-10 μM, B 1.4 nM-1 μM
Method: as §1, §2, §3

RKO = test: Cell proliferation (cell count by microscopy) and HSA synergy, RKO; details: Homo sapiens, cell line printed RXO (BRAF, PIK3CA mutant), 72 h, 50% of cell counts relative to DMSO, tested A 13 nM-10 μM, B 1.4 nM-1 μM
Method: as §1, §2, §3

LS411N = test: Cell proliferation (cell count by microscopy) and HSA synergy, LS411N; details: Homo sapiens, LS-411N; LS411N (BRAF mutant); 72 h; 50% of cell counts relative to DMSO; tested A 13 nM-10 μM, B 1.4 nM-1 μM
Method: as §1, §2, §3

Structure (SMILES) | IC50 (LIM2551) [nM] | IC50 (LIM2405) [nM] | IC50 (COLO-205) [nM] | IC50 (OUMS-23) [nM] | IC50 (HT-29) [nM] | IC50 (RKO) [nM] | IC50 (LS411N) [nM]
CC(C)(C)c1nc(-c2cccc(NS(=O)(=O)c3c(F)cccc3F)c2F)c(-c2ccnc(N)n2)s1 [COMPOUND B, N-{3-[5-(2-Amino-4-pyrimidinyl)-2-(1,1-dimethylethyl)-1,3-thiazol-4-yl]-2-fluorophenyl}-2,6-difluorobenzenesulfonamide] | 23 | 7 | 10 | > 1000 | 12 | 191 | > 1000
Cc1nc(NC(=O)N2CCC[C@H]2C(N)=O)sc1-c1ccnc(C(C)(C)C(F)(F)F)c1 [COMPOUND A, (S)-Pyrrolidine-1,2-dicarboxylic acid 2-amide 1-({4-methyl-5-[2-(2,2,2-trifluoro-1,1-dimethyl-ethyl)-pyridin-4-yl]-thiazol-2-yl}-amide)] | 1400 | > 10000 | > 10000 | > 10000 | 1900 | 2600 | > 10000
